Test results taken from patent publication US20070191373A1, “Heterocyclic compounds for use in the treatment of viral infections” (priority 2003, published 2007).
Like-named read-outs stand apart in the source and are kept apart here.

What was measured:
[1] = Toxicity in tissue culture, reduction of cell number; assay type: cell-based; settings: human, human embryonic lung fibroblast (HEL) cells, concentration reducing cell number by 50%
Description: (§1) Products where X═Y═N, Z=Q=O, U═V═CH and R^1, R^4 and R^8 are as given in Tables 1 and 2 below embodying the present invention were tested in vitro in tissue cultures for toxicity and for potent antiviral actions with respect to cytomegalovirus (CMV).
CC50/μM is the compound concentration required to reduce the cell number by 50%.
(§2) Further details of the methodology employed can be found in McGuigan et al. J. Med. Chem., 1999, 42, 4479-4484.

[2] = system: CMV strain Davis; assay: CMV strain Davis induced cytopathicity in HEL cells; assay type: cell-based, cytomegalovirus (CMV); settings: Human betaherpesvirus 5, 168 h, vs untreated control
Description: as §1
EC50/μM CMV Davis is the drug concentration in μM required to reduce by 50% CMV strain Davis induced cytopathicity in human embryonic lung fibroblast (HEL) cells measured 7 days post infection compared to untreated control.
as §2

[3] = system: CMV strain AD169; assay: CMV strain AD169 induced cytopathicity in HEL cells; assay type: cell-based, cytomegalovirus (CMV); settings: Human betaherpesvirus 5, AD169, 168 h, vs untreated control
Description: as §1
EC50/μm CMV-AD169 is the drug concentration in μM required to reduce by 50% CMV strain AD169 induced cytopathicity in human embryonic lung fibroblast (HEL) cells measured 7 days post infection compared to untreated control.
as §2

[4] = Preliminary rodent trial, bioavailability and half life after i.p. dosing; assay type: in vivo
[5] = not given; remark: listed apart in the source
[6] = Table 2, 7 days post infection, read-out: EC50/μM 2 CMV Davis
[7] = Table 1, 7 days post infection, read-out: EC50/μM 1 CMV Davis

EC50 [2, 6] [µM]	EC50 ([3]; Table 2, 7 days post infection) [µM]	EC50 [2, 7] [µM]	EC50 ([3]; Table 1, 7 days post infection) [µM]	SMILES	CC50 ([1]; Table 2) [µM]	CC50 ([1]; Table 1) [µM]	further results
2.9	3.3	–	–	CCCCCCCCCCc1cc2cnc(OCc3ccc(OC)cc3)nc2o1 [Cf2315, 6-Decyl-2-(4-methoxybenzyloxy)-3H-furo[2,3-a]pyrimidine]	> 200	–	–
–	–	0.84	0.78	CCCCCCCCCCc1cc2cn(CC3CCCO3)c(=O)nc2o1 (centres unmarked) [Cf2309, 6-Decyl-3-(tetrahydro-furan-2-ylmethyl)-3H-furo[2,3-d]pyrimidin-2-one]	–	49	–
–	–	> 20	> 20	CCCCCCCc1cc2cn(C3CCCO3)c(=O)nc2o1 (centres unmarked) [Cf2196, 6-Heptyl-3-(tetrahydro-furan-2-yl)-3H-furo[2,3-d]pyrimidin-2-one]	–	46	–
2.1	2.5	–	–	CCCCCCCCCCc1cc2cnc(OCCC)nc2o1 [Cf2303, 6-Decyl-2-propoxy-furo[2,3-d]pyrimidine]	126	–	–
3.9	10.5	–	–	CCCCCCCCCCc1cc2cnc(OCc3ccc(C)cc3)nc2o1 [Cf2313, 6-Decyl-2-(4-methylbenzyloxy)-3H-furo[2,3-d]pyrimidine]	> 200	–	–
–	–	> 50	> 50	CCCCCn1cc2cc(CCCC)oc2nc1=O [Cf2195, 6-Butyl-3-pentyl-3H-furo[2,3-d]pyrimidin-2-one]	–	> 200	–
–	–	> 50	> 50	CCCCc1cc2cn(C3CCCC3)c(=O)nc2o1 [Cf2158, 6-Butyl-3-cyclopentyl-3H-furo[2,3-d]pyrimidin-2-one]	–	–	–
–	–	50	20	CCCCCCCc1cc2cn(C(CC)CC)c(=O)nc2o1 [Cf2190, 6-Heptyl-3-(1-ethyl-propyl)-3H-furo[2,3-d]pyrimidin-2-one]	–	> 200	–
–	–	> 40	> 40	CCCCCCCCCCc1cc2cn(Cc3ccc(C)cc3)c(=O)nc2o1 [Cf2314, 6-Decyl-3-(4-methylbenzyl)-3H-furo[2,3-d]pyrimidin-2-one]	–	> 200	–
–	–	8	40	CCCCCCCCCCc1cc2cn(CCC)c(=O)nc2o1 [Cf2304, 6-Decyl-3-propyl-3H-furo[2,3-d]pyrimidin-2-one]	–	> 200	–
–	–	> 200	> 200	CCCCCCCCCCc1cc2cn(CC3CCCCC3)c(=O)nc2o1 [Cf2275, 3-Cyclohexylmethyl-6-decyl-3H-furo[2,3-d]pyrimidin-2-one]	–	> 200	–
–	–	4	5	CCCCCCCc1cc2cn(C3CCCC3)c(=O)nc2o1 [Cf2160]	–	194	–
3	8	–	–	CCCCCCc1cc2cnc(OCCCC)nc2o1 [Cf2346, 2-Butyloxy-6-hexyl-furo[2,3-d]pyrimidine]	–	–	–
–	–	> 40	> 40	CCCCCCCCCCc1cc2cn(Cc3ccccc3)c(=O)nc2o1 [Cf2308, 3-Benzyl-6-decyl-3H-furo[2,3-d]pyrimidin-2-one]	–	> 200	–
16	> 5	–	–	CCCCCCCc1cc2cnc(OCCCCC)nc2o1 [Cf2191, 6-Heptyl-2-pentyloxy-furo[2,3-d]pyrimidine]	1110	–	melting point [5]: 48 to 49 °C
–	–	10	20	CCCCCCCCCCc1cc2cn(C3CCOC3)c(=O)nc2o1 (centres unmarked) [Cf2276, 6-Decyl-3-(tetrahydro-furan-3-yl)-3H-furo[2,3-d]pyrimidin-None]	–	148	–
2.9	4.4	–	–	CCCCCCCCCCc1cc2cnc(OCC3CCCCC3)nc2o1 [Cf2274, 2-Cyclohexylmethoxy-6-decyl-furo[2,3-d]pyrimidine]	> 200	–	–
–	–	> 200	> 200	CCCCCCCCCCc1cc2cn(Cc3ccc(OC)cc3)c(=O)nc2o1 [Cf2316, 6-Decyl-3-(4-methoxybenzyl)-3H-furo[2,3-d]pyrimidin-2-one]	–	> 200	–

EC50 [2, 6] [µM]	EC50 ([3]; Table 2, 7 days post infection) [µM]	EC50 [2, 7] [µM]	EC50 ([3]; Table 1, 7 days post infection) [µM]	SMILES	CC50 ([1]; Table 2) [µM]	CC50 ([1]; Table 1) [µM]	further results
> 20	> 20	–	–	CCCCc1cc2cnc(OC(CC)CC)nc2o1 [Cf2193, 6-Butyl-2-(1-ethyl-propoxy)-furo[2,3-d]pyrimidine]	98	–	–
–	–	–	–	CCCCCOc1ncc2cc(CCCC)oc2n1 [Cf 2327]	–	–	melting point [5]: 51 to 52 °C
> 3.6	> 200	–	–	CCCCCCc1cc2cnc(OCc3ccccc3)nc2o1 [Cf2348, 2-Benzyloxy-6-hexyl-furo[2,3-d]pyrimidine]	–	–	–
> 200	> 200	–	–	CCCCCCCCCCc1cc2cnc(OCCCCC)nc2o1 [Cf2247]	> 200	–	–
10	16	–	–	CCCCCCCCCCc1cc2cnc(OC(CC)CC)nc2o1 [Cf2252]	127	–	–
–	–	50	> 50	CCCCCCCCCCc1cc2cn(C3CCCO3)c(=O)nc2o1 (centres unmarked) [Cf2249, 6-Decyl-3-(tetrahydro-furan-2′-yl)-2,3-dihydrofuro[2,3-d]pyrimidin-2-one]	–	> 200	–
16	12	–	–	CCCCCCCCCCc1cc2cnc(OC3CCCCC3)nc2o1 [Cf2294]	> 200	–	–
–	–	> 200	> 50	CCCCc1cc2cn(C(CC)CC)c(=O)nc2o1 [Cf2194, 6-Butyl-3-(1-ethyl-propyl)-3H-furo[2,3-d]pyrimidin-2-one]	–	> 200	–
> 50	> 50	–	–	CCCCCCCCCCc1cc2cnc(OC3CCCC3)nc2o1 [Cf2250, 2-Cyclopentyloxy-6decyl-2,3-dihydrofuro[2,3-d]pyrimidine]	> 200	–	–
–	–	20	18	CCCCCCc1cc2cn(C)c(=O)nc2o1 [Cf2344, 6-Hexyl-3-methyl-3H-furo[2,3-d]pyrimidin-2-one]	–	–	–
1.1	3.3	–	–	CCCCCCCCCCc1cc2cnc(OCc3ccccc3)nc2o1 [Cf2307, 2-Benzyloxy-6-decyl-furo[2,3-d]pyrimidine]	> 200	–	–
–	–	> 200	> 200	CCCCCCCCCCc1cc2cn(CCCC)c(=O)nc2o1 [Cf2306, 3-Butyl-6-decyl-3H-furo[2,3-d]pyrimidin-2-one]	–	> 200	–
12	> 5	–	–	CCCCCCCc1cc2cnc(OC(CC)CC)nc2o1 [Cf2189, 6-Heptyl-2-(1-ethyl-propoxy)-furo[2,3-d]pyrimidine]	98	–	melting point [5]: 70 to 71 °C
–	–	> 200	> 200	CCCCCCc1cc2cn(Cc3ccccc3)c(=O)nc2o1 [Cf2349, 3-Benzyl-6-hexyl-3H-furo[2,3-d]pyrimidin-2-one]	–	–	–
–	–	50	38	CCCCCCCCCCc1cc2cn(C3CCCCC3)c(=O)nc2o1 [Cf2295, 3-Cyclohexyl-6-decyl-2,3-dihydrofuro[2,3-d]pyrimidin-2-one]	–	> 200	–
–	–	> 200	> 200	CCCCCCCc1cc2cn(CCCCC)c(=O)nc2o1 [Cf2192, 6-Heptyl-3-pentyl-3H-furo[2,3-d]pyrimidin-2-one]	–	> 200	–
7	8	–	–	CCCCc1cc2cnc(OC3CCCC3)nc2o1 [Cf2159, 6-Butyl-2-cyclopentyloxy-furo[2,3-d]pyrimidine]	108	–	melting point [5]: 69 to 71 °C

SMILES	EC50 [2, 6] [µM]	EC50 ([3]; Table 2, 7 days post infection) [µM]	EC50 [2, 7] [µM]	EC50 ([3]; Table 1, 7 days post infection) [µM]	CC50 ([1]; Table 2) [µM]	CC50 ([1]; Table 1) [µM]	further results
CCCCCCCc1cc2cnc(OC3CCCC3)nc2o1 [Cf2161, 6-Heptyl-2-cyclopentyloxy-furo[2,3-d]pyrimidine]	5	3	–	–	132	–	bioavailability [4]: significant; visible in vivo toxicity (50 mg/kg/day): no visible in vivo toxicity; histology: toxicity against brain, thymus, liver, lungs, kidney, breast, testi, ovum and spleen tissue (in vivo): no detectable toxicity
CCCCCCCCCCc1cc2cnc(OCCCC)nc2o1 [Cf2305, 2-Butoxy-6decyl-furo[2,3-a]pyrimidine]	2.7	3.9	–	–	> 200	–	–
